According to ChEMBL document CHEMBL1201862, “PubChem BioAssay data set” (2004):
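96-well plates; 48 h exposure; 5 concentrations. Endpoints by linear interpolation between flanking doses. Not reached: highest tested concentration assigned. GI50: concentration for 50% inhibition of growth.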 Activity calls are given as the source filed them. No stated cut-off is given here; in the data, active = GI50 up to about 1.1 µM and inactive = higher.

Key:
Assay in all cases: NCI anticancer screen, dose series, 48 h
[1] = tested on: SK-MEL-28
[2] = tested on: SK-MEL-2
[3] = tested on: CCRF-CEM
[4] = tested on: MOLT-4
[5] = tested on: NCI-H226
[6] = tested on: LOX IMVI
[7] = tested on: OVCAR-4
[8] = tested on: K562
[9] = tested on: SNB-19
[10] = tested on: M14
[11] = tested on: HCC 2998
[12] = tested on: SF-539
[13] = tested on: UACC-257
[14] = tested on: OVCAR-5
[15] = tested on: UO-31
[16] = tested on: HT-29
[17] = tested on: SR
[18] = tested on: A498

| Structure (SMILES) | GI50 [1] | GI50 [2] | GI50 [3] | GI50 [4] | GI50 [5] | GI50 [6] | GI50 [7] | GI50 [8] | GI50 [9] | GI50 [10] | GI50 [11] | GI50 [12] | GI50 [13] | GI50 [14] | GI50 [15] | GI50 [16] | GI50 [17] | GI50 [18] |
| --- | --- | --- | --- | --- | --- | --- | --- | --- | --- | --- | --- | --- | --- | --- | --- | --- | --- | --- |
| CCCCCCCCCCCC(=O)c1c(O)cccc1O | 17.8 µM (inactive) | 15.4 µM (inactive) | 24.5 µM (inactive) | 20.4 µM (inactive) | 19.3 µM (inactive) | 18.8 µM (inactive) | 20.4 µM (inactive) | 31.9 µM (inactive) | 16.5 µM (inactive) | 18.6 µM (inactive) | 19.7 µM (inactive) | 18 µM (inactive) | 16.7 µM (inactive) | 15.2 µM (inactive) | 16.5 µM (inactive) | 22.3 µM (inactive) | 21 µM (inactive) |  |
| COc1cc(/C=N\c2ccc(C(C)C)cc2)cc(OC)c1OC | > 100 µM (inactive) | > 100 µM (inactive) | > 66.8 µM (inactive) | > 100 µM (inactive) | > 100 µM (inactive) | > 54.7 µM (inactive) | > 100 µM (inactive) | > 50.4 µM (inactive) | > 100 µM (inactive) | > 100 µM (inactive) |  | > 100 µM (inactive) | > 100 µM (inactive) | > 100 µM (inactive) | > 74.1 µM (inactive) | > 100 µM (inactive) | 54.3 µM (inactive) | > 100 µM (inactive) |
| CCC1c2cc3n(c(=O)c2COC1O)Cc1c-3nc2ccccc2c1Cl (stereo unspecified) | > 100 µM (inactive) | > 100 µM (inactive) | 3.34 µM (inactive) | 3.28 µM (inactive) | 39.6 µM (inactive) | 18.6 µM (inactive) | > 65.5 µM (inactive) | 32.2 µM (inactive) | 30.3 µM (inactive) | 25 µM (inactive) | 44.7 µM (inactive) | 22.2 µM (inactive) | > 100 µM (inactive) | > 100 µM (inactive) | 19.4 µM (inactive) | 70.1 µM (inactive) |  | 52.6 µM (inactive) |
| COc1nc(OC)c2c(=O)oc(-c3ccccc3)cc2n1 | > 100 µM (inactive) | > 100 µM (inactive) |  | > 100 µM (inactive) | > 100 µM (inactive) |  | > 100 µM (inactive) | > 100 µM (inactive) | > 100 µM (inactive) |  | > 100 µM (inactive) | > 100 µM (inactive) | > 100 µM (inactive) | > 100 µM (inactive) | > 100 µM (inactive) | > 100 µM (inactive) | > 100 µM (inactive) |  |
| O=C1C=CC(=O)c2nc3c(cc21)CCC3 | 25.6 µM (inactive) |  | 5.61 µM (inactive) | 11.6 µM (inactive) |  | 15.3 µM (inactive) | 15.7 µM (inactive) | 16.9 µM (inactive) | > 100 µM (inactive) | 16.6 µM (inactive) | > 100 µM (inactive) | > 10 µM (inactive) | 19.6 µM (inactive) | > 100 µM (inactive) | > 100 µM (inactive) | 45.9 µM (inactive) | 5.92 µM (inactive) |  |
| CCC1=CC2CN3Cn4c(c(COCc5c6n(c7ccccc57)CN5CC7C=C(CC)C5C6(C(=O)OC)C7)c5ccccc54)C(C(=O)OC)(C2)C13 | > 100 µM (inactive) | > 100 µM (inactive) | > 100 µM (inactive) | > 100 µM (inactive) | > 100 µM (inactive) | > 100 µM (inactive) | > 100 µM (inactive) | > 100 µM (inactive) | > 100 µM (inactive) | > 100 µM (inactive) |  |  | > 100 µM (inactive) |  | > 100 µM (inactive) | > 100 µM (inactive) | > 100 µM (inactive) | > 100 µM (inactive) |
| Nc1ccc(C(=O)NN2C(=O)C(Cl)C2c2ccc([N+](=O)[O-])cc2)cc1 (stereo unspecified) | 7.23 µM (inactive) | 16.9 µM (inactive) | 3.54 µM (inactive) | 3.2 µM (inactive) | 17.2 µM (inactive) | 1.74 µM (inactive) | 12.7 µM (inactive) | 9.75 µM (inactive) | 13.1 µM (inactive) | 12.9 µM (inactive) | 9.08 µM (inactive) | 11.6 µM (inactive) | 14.7 µM (inactive) | 17.6 µM (inactive) | 15.6 µM (inactive) | 8.87 µM (inactive) |  | 20.8 µM (inactive) |
| Cc1ccc([S+](c2ccccc2)c2cc(C)ccc2C)cc1 (stereo unspecified) |  |  | 0.438 µM (active) | 3.65 µM (inactive) |  | 2.35 µM (inactive) | 29.4 µM (inactive) | 0.374 µM (active) | 4.38 µM (inactive) | 22.2 µM (inactive) | 1.7 µM (inactive) | 13.7 µM (inactive) | 1.48 µM (inactive) |  | > 100 µM (inactive) |  | 24.6 µM (inactive) | 0.0435 µM (active) |
| COc1cccc(C(=O)O)c1Cc1cccc2ccccc12 | > 100 µM (inactive) | > 100 µM (inactive) | > 100 µM (inactive) | > 100 µM (inactive) | > 100 µM (inactive) | > 100 µM (inactive) | > 100 µM (inactive) | > 100 µM (inactive) | > 100 µM (inactive) | > 100 µM (inactive) | > 100 µM (inactive) |  | > 100 µM (inactive) | > 100 µM (inactive) | > 100 µM (inactive) | > 100 µM (inactive) | > 100 µM (inactive) |  |
